# Assay results as given in ChEMBL document CHEMBL2040827, “Quinolizidinone carboxylic acids as CNS penetrant, selective m1 allosteric muscarinic receptor modulators” (ACS Med Chem Lett, 2010).
# Active and inactive are the calls of the source. The rule behind the calls is not given here.
# Tests used:
# [1] = molecular target: T1, Muscarinic acetylcholine receptor M1 (Homo sapiens) (UniProt P11229); assay: Positive allosteric modulation of human muscarinic M1 receptor expressed in CHO-NFAT cells assessed as potentiation of acetylcholine-induced calcium flux after 1 hr by FLIPR assay; type: functional, cell-based
# T1 sequence (whole entry): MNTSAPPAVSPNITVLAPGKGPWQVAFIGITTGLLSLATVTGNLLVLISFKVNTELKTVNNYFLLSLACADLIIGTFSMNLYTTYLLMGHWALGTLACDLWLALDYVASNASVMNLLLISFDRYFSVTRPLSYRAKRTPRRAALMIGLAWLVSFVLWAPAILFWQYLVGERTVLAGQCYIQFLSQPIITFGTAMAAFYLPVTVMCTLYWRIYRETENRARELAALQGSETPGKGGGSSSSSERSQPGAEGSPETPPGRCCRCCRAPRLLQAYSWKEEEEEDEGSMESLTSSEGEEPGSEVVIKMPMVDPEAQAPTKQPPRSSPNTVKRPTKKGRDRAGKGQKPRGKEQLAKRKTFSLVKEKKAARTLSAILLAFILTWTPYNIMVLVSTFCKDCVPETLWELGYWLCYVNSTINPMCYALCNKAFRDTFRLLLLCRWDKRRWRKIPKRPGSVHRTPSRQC
# [2] = molecular target: T1, Muscarinic acetylcholine receptor M1 (Homo sapiens); assay: Positive allosteric modulation of human muscarinic M1 receptor expressed in CHO-NFAT cells assessed as potentiation of acetylcholine-induced calcium flux after 1 hr by FLIPR assay relative to control; type: functional, cell-based; set-up: concentration or dose not given beside the values
# [3] = (§1) Protein binding in rat plasma; type: ADME, cell-free; conditions: read-out: PPB (converted)
# [4] = (§2) Protein binding in human plasma; type: ADME, cell-free; conditions: read-out: PPB (converted)
# P-glycoprotein = assay: Passive permeability of the compound assessed as P-glycoprotein-mediated drug transport; type: ADME; conditions: not told
# [5] = molecular target: MDR1 (P-glycoprotein, ABCB1) (Homo sapiens, UniProt P08183); assay: Efflux ratio of the compound assessed as ratio of human MDR1-mediated permeability from basolateral to apical over apical to basolateral side of drug transport; type: ADME; conditions: not told
# Chain of MDR1 (P-glycoprotein, ABCB1) (P08183 whole entry): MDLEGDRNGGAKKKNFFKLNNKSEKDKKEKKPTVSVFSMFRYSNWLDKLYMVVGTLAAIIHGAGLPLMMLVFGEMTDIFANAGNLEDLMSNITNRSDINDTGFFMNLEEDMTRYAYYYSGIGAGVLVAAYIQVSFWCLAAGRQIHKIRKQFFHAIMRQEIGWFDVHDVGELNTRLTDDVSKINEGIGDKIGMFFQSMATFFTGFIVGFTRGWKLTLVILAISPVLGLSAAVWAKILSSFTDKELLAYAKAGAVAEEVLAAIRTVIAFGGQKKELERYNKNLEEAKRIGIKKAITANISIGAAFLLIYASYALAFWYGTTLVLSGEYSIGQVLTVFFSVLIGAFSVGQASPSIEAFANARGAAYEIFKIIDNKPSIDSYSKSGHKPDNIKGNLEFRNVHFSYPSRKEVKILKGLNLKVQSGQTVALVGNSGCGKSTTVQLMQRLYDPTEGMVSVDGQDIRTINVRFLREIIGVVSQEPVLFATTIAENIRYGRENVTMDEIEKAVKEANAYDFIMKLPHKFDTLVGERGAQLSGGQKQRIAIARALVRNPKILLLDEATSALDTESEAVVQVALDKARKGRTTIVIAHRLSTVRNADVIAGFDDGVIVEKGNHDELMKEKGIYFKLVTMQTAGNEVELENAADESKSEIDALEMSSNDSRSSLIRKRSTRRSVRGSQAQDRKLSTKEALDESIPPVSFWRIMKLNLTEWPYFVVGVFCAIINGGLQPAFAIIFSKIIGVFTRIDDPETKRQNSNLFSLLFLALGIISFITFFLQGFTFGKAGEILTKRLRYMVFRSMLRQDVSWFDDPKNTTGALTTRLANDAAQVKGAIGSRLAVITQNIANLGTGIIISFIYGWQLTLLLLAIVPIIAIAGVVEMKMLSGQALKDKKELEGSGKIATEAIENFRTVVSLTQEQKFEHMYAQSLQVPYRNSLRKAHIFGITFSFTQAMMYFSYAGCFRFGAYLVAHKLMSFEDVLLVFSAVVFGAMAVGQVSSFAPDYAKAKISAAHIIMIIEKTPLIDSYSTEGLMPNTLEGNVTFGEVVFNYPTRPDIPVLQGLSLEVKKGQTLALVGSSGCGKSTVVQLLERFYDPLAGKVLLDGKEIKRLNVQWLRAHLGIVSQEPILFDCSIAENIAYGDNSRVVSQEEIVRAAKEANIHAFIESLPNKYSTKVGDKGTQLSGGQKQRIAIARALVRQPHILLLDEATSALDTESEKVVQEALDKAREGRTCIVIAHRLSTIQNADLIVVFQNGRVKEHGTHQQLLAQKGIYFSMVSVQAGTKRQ
# [6] = molecular target: MDR1a (multidrug resistance protein 1a) (Rattus norvegicus, UniProt Q6PSM0); assay: Efflux ratio of the compound assessed as ratio of rat MDR1a-mediated permeability from basolateral to apical over apical to basolateral side of drug transport; type: ADME; conditions: not told
# Chain of MDR1a (multidrug resistance protein 1a) (Q6PSM0 whole entry): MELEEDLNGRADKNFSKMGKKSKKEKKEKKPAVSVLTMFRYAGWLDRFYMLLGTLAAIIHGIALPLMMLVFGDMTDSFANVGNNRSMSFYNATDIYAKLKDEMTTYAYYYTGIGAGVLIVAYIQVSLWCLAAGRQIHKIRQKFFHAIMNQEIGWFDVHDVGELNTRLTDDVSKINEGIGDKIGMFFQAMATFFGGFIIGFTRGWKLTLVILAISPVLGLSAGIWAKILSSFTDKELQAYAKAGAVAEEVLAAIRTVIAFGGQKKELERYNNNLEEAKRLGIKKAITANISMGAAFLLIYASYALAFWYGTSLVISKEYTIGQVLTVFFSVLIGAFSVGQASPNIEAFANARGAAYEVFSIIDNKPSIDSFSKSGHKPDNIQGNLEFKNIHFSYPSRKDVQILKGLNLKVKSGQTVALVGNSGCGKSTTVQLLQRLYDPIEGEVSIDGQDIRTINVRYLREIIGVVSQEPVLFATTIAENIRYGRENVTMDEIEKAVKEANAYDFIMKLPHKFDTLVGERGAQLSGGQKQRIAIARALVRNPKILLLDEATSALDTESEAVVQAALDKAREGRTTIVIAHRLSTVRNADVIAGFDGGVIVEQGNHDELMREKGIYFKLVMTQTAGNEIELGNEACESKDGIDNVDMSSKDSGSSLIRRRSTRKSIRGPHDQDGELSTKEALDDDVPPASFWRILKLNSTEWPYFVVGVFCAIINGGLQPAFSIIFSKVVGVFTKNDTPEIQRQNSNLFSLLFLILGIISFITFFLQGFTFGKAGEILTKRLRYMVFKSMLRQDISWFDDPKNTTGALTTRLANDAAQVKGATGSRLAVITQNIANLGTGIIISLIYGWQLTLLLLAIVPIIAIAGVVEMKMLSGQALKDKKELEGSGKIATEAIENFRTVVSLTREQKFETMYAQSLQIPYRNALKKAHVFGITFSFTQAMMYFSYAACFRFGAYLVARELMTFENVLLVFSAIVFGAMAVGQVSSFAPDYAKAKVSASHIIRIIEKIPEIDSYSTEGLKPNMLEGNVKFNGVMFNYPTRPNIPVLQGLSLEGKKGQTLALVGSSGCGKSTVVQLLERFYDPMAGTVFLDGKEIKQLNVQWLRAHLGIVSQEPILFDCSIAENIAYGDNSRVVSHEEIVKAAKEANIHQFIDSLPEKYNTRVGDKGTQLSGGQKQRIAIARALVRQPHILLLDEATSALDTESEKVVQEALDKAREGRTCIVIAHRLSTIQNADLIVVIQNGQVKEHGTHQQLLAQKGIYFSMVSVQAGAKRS
# Plasma [7] = assay: Plasma concentration in Sprague-Dawley rat at 10 mg/kg, po; type: ADME, organism-based; set-up: dose 10 mg/kg, route oral; conditions: in vivo
# Brain = assay: Drug uptake in Sprague-Dawley rat brain at 10 mg/kg, po; type: ADME, organism-based; set-up: dose 10 mg/kg, route oral; conditions: in vivo, read-out: Drug uptake
# [8] = Ratio of drug level in brain to plasma in Sprague-Dawley rat at 10 mg/kg, po; type: ADME, organism-based; set-up: dose 10 mg/kg, route oral; conditions: read-out: BPR
# Cerebrospinal fluid = assay: Drug uptake in Sprague-Dawley rat cerebrospinal fluid at 10 mg/kg, po; type: ADME, organism-based; set-up: dose 10 mg/kg, route oral; conditions: in vivo, read-out: Drug uptake
# [9] = Ratio of drug uptake in Sprague-Dawley rat cerebrospinal fluid at 10 mg/kg, po to protein binding in rat plasma; type: ADME, organism-based, CSF/Plasma; set-up: dose 10 mg/kg, route oral; conditions: in vivo
# [10] = molecular target: Voltage-gated inwardly rectifying potassium channel KCNH2 (Homo sapiens, UniProt Q12809); assay: Inhibition of human ERG
# Chain of Voltage-gated inwardly rectifying potassium channel KCNH2 (Q12809 whole entry): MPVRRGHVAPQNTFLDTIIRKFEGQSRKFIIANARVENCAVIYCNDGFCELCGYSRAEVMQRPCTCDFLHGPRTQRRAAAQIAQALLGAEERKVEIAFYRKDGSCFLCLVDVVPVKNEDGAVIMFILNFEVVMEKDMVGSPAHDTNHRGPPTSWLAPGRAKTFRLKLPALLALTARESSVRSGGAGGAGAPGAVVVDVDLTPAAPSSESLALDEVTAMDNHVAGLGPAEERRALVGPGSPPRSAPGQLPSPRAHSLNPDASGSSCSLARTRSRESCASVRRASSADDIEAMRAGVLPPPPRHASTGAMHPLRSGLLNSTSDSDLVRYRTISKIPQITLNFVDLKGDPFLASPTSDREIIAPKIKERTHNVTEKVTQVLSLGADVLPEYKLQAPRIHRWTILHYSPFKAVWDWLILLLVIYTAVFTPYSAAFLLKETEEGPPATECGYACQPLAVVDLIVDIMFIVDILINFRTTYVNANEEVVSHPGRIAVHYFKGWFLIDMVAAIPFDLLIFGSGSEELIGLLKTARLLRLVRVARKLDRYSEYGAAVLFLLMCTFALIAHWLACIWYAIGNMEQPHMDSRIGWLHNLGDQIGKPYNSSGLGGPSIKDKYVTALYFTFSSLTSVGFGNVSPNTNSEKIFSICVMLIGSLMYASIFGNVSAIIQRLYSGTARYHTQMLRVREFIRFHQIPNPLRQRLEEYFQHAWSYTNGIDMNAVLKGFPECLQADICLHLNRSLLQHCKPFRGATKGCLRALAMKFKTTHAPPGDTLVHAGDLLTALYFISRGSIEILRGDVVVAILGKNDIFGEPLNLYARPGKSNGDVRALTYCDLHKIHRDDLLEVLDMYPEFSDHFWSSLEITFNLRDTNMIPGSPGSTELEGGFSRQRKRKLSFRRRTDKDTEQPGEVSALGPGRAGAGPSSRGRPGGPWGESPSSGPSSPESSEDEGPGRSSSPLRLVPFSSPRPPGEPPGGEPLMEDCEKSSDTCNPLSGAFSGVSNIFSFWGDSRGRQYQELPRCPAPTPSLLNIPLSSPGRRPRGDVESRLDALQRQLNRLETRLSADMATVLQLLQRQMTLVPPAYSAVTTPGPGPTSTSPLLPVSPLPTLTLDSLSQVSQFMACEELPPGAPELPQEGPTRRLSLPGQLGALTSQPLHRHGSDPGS
# [11] = molecular target: T1, Muscarinic acetylcholine receptor M1 (Homo sapiens); assay: Agonist activity at human muscarinic M1 receptor expressed in CHO-NFAT cells assessed as effect on calcium flux up to 10 uM after 1 hr by FLIPR assay; type: functional, cell-based
# [12] = molecular target: T2, Muscarinic acetylcholine receptor M2 (Homo sapiens) (UniProt P08172); assay: Agonist activity at human muscarinic M2 receptor expressed in CHO-NFAT cells assessed as potentiation of acetylcholine-induced calcium flux at up to 100 uM after 1 hr by FLIPR assay; type: functional, cell-based
# T2 sequence (whole entry): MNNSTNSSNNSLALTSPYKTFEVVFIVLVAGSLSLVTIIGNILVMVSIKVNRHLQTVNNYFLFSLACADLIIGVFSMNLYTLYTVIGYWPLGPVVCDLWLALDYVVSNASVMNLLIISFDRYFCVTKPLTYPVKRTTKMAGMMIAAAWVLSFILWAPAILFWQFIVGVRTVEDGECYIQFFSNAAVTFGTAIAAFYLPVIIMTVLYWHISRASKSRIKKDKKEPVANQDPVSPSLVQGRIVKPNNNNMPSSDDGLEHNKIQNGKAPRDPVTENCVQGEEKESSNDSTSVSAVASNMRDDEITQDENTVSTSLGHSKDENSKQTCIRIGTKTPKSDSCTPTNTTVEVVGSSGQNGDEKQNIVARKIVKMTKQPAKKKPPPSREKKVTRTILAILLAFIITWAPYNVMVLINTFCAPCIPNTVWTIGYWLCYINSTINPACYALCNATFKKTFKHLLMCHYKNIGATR
# [13] = molecular target: Muscarinic acetylcholine receptor M3 (Homo sapiens) (UniProt P20309); assay: Agonist activity at human muscarinic M3 receptor expressed in CHO-NFAT cells assessed as potentiation of acetylcholine-induced calcium flux at up to 100 uM after 1 hr by FLIPR assay; type: functional, cell-based
# Chain of Muscarinic acetylcholine receptor M3 (Homo sapiens) (P20309 whole entry, looked up): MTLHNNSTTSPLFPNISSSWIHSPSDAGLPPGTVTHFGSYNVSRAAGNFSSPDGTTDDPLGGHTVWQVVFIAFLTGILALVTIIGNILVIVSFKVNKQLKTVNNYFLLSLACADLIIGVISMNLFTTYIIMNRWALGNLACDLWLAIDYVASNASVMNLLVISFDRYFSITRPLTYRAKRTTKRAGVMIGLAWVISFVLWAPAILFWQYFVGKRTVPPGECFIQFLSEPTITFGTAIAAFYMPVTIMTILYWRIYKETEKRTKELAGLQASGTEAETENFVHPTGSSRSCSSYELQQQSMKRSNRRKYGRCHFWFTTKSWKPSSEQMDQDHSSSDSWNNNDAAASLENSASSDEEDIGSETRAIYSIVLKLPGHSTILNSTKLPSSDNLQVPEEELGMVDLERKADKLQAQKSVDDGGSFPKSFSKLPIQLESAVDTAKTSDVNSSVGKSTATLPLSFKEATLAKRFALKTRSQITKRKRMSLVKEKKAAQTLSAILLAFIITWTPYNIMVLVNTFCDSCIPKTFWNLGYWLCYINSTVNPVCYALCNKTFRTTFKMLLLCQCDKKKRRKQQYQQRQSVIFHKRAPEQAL
# [14] = molecular target: T3, Muscarinic acetylcholine receptor M4 (Homo sapiens) (UniProt P08173); assay: Agonist activity at human muscarinic M4 receptor expressed in CHO-NFAT cells assessed as potentiation of acetylcholine-induced calcium flux at up to 100 uM after 1 hr by FLIPR assay; type: functional, cell-based
# T3 sequence (whole entry): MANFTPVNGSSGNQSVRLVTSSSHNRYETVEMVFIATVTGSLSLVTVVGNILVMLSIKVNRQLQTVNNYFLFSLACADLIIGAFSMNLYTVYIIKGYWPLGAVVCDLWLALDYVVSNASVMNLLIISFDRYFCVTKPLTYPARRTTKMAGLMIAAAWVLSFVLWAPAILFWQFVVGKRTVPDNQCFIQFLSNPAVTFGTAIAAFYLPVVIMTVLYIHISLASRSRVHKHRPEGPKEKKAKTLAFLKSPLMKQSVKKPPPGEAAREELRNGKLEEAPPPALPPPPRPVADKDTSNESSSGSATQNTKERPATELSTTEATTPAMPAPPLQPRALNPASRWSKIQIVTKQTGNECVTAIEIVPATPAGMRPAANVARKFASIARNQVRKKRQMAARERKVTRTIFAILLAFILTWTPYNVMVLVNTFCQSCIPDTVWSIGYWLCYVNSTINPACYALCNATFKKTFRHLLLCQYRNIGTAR
# [15] = molecular target: T2, Muscarinic acetylcholine receptor M2 (Homo sapiens); assay: Antagonist activity at human muscarinic M2 receptor expressed in CHO-NFAT cells assessed as inhibition of acetylcholine-induced calcium flux at up to 100 uM after 1 hr by FLIPR assay; type: functional, cell-based
# [16] = molecular target: Muscarinic acetylcholine receptor M3 (Homo sapiens) (UniProt P20309); assay: Antagonist activity at human muscarinic M3 receptor expressed in CHO-NFAT cells assessed as inhibition of acetylcholine-induced calcium flux at up to 100 uM after 1 hr by FLIPR assay; type: functional, cell-based
# [17] = molecular target: T3, Muscarinic acetylcholine receptor M4 (Homo sapiens); assay: Antagonist activity at human muscarinic M4 receptor expressed in CHO-NFAT cells assessed as inhibition of acetylcholine-induced calcium flux at up to 100 uM after 1 hr by FLIPR assay; type: functional, cell-based
# Mus musculus [18] = assay: Inhibition of scopolamine-induced memory deficit in ip dosed contextual fear conditioning memory model of mouse by measuring freezing behavior after 24 hrs […] relative to control; type: functional, organism-based
# Mus musculus [19] = assay: Inhibition of scopolamine-induced memory deficit in contextual fear conditioning memory model of mouse by measuring freezing behavior at 30 mg/kg, ip at 7.4 uM of plasma concentration after 24 hrs […] relative to control; type: functional, organism-based; set-up: dose 30 mg/kg
# Mus musculus [20] = assay: Inhibition of scopolamine-induced memory deficit in ip dosed contextual fear conditioning memory model of mouse by measuring freezing behavior at 33 uM of plasma concentration after 24 hrs […] relative to control; type: functional, organism-based
# [21] = Oral bioavailability in Sprague-Dawley rat at 10 mg/kg; type: ADME, organism-based; conditions: in vivo
# [22] = Half life in Sprague-Dawley rat at 10 mg/kg, po and 2 mg/kg, iv; type: ADME, organism-based; conditions: in vivo
# [23] = Clearance in Sprague-Dawley rat at 10 mg/kg, po and 2 mg/kg, iv; type: ADME, organism-based; conditions: in vivo
# [24] = Oral bioavailability in dog at 10 mg/kg; type: ADME, organism-based, Canis lupus familiaris; conditions: in vivo
# [25] = Half life in dog at 10 mg/kg, po and 2 mg/kg, iv; type: ADME, organism-based, Canis lupus familiaris; conditions: in vivo
# [26] = Clearance in dog at 10 mg/kg, po and 2 mg/kg, iv; type: ADME, organism-based, Canis lupus familiaris; conditions: in vivo
# Plasma [27] = assay: as §1; type: ADME, cell-free
# Plasma [28] = assay: as §2; type: ADME, cell-free
# [29] = Fraction unbound in rat plasma; type: ADME, cell-free
# [30] = Fraction unbound in human plasma; type: ADME, cell-free
compound,measurement,setting,value
N#Cc1ccc(N2CCN(Cc3cc(C(=O)O)c(=O)n4ccccc34)CC2)cc1,Activity,[1],0.52 µM
same,Activity,[2],94%
same,fraction unbound,[3],0.062
same,fraction unbound,[4],0.134
same,Papp,P-glycoprotein,22 ×10⁻⁶ cm/s
same,efflux ratio,[5],0.7
same,efflux ratio,[6],1.9
same,concentration,Plasma [7],1500 nM
same,concentration,Brain,248 nM
same,Kp,[8],0.17
same,concentration,Cerebrospinal fluid,85 nM
same,Ratio,[9],0.42
same,IC50,[10],7400 nM
same,Activity,[11],inactive
same,Activity,[12],inactive
same,Activity,[13],inactive
same,Activity,[14],inactive
same,inhibition,[15],inactive
same,inhibition,[16],inactive
same,inhibition,[17],inactive
same,inhibition,Mus musculus [18],Dose-dependent effect
same,inhibition,Mus musculus [19],Active
same,inhibition,Mus musculus [20],Active
same,bioavailability,[21],23%
same,half-life,[22],6.4 h
same,clearance,[23],10.8 mL/min/kg
same,bioavailability,[24],33%
same,half-life,[25],2.5 h
same,clearance,[26],13 mL/min/kg
O=C(O)c1cc(CN2CCC(c3ccccc3)C2)c2ccccn2c1=O (stereo unspecified),Activity,[1],> 100 µM
O=C(O)c1cc(Cc2ccc(-c3cccnc3)cc2)c2ccccn2c1=O,Activity,[1],0.075 µM
same,Activity,[2],74%
same,fraction unbound,[3],0.015
same,fraction unbound,[4],0.003
O=C(O)c1cc(CN2CCN(c3ccncc3)CC2)c2ccccn2c1=O,Activity,[1],1.5 µM
same,Activity,[2],86%
same,Papp,P-glycoprotein,< 5 ×10⁻⁶ cm/s
same,concentration,Plasma [7],2070 nM
same,concentration,Brain,59 nM
same,Kp,[8],0.03
same,concentration,Cerebrospinal fluid,16 nM
same,Ratio,[9],0.02
O=C(O)c1cc(CN2CCCCC2)c2ccccn2c1=O,Activity,[1],7.6 µM
same,Activity,[2],87%
O=C(O)c1cc(Cc2ccc(-c3ccccc3)cc2)c2ccccn2c1=O,Activity,[1],0.11 µM
same,Activity,[2],86%
same,PPB,Plasma [27],ND(Insoluble)
same,PPB,Plasma [28],ND(Insoluble)
O=C(O)c1cc(CN2CCC(c3ccccc3)CC2)c2ccccn2c1=O,Activity,[1],1.3 µM
same,Activity,[2],58%
O=C(O)c1cc(Cc2ccc(-c3ccccn3)cc2)c2ccccn2c1=O,Activity,[1],0.061 µM
same,Activity,[2],78%
O=C(O)c1cc(C(O)c2ccccc2)c2ccccn2c1=O (stereo unspecified),Activity,[1],> 100 µM
COc1ccc(Cn2cc(C(=O)O)c(=O)c3ccccc32)cc1,inhibition,Mus musculus [20],inactive
O=C(O)c1cc(Cc2ccccc2)c2ccccn2c1=O,Activity,[1],0.92 µM
same,Activity,[2],81%
O=C(O)c1cc(CN2CCN(c3ccc(Br)cc3)CC2)c2ccccn2c1=O,Activity,[1],0.13 µM
same,Activity,[2],77%
same,fraction unbound,[3],0.039
same,fraction unbound,[4],0.065
same,fraction unbound,[29],0.04
same,Papp,P-glycoprotein,16 ×10⁻⁶ cm/s
same,efflux ratio,[5],0.1
same,efflux ratio,[6],0.6
same,concentration,Plasma [7],3650 nM
same,concentration,Brain,4580 nM
same,Kp,[8],1.3
same,concentration,Cerebrospinal fluid,70 nM
same,Ratio,[9],0.32
same,IC50,[10],2100 nM
O=C(O)c1cc(CN2CCN(c3ccc(C(F)(F)F)cc3)CC2)c2ccccn2c1=O,Activity,[1],0.27 µM
same,Activity,[2],67%
same,fraction unbound,[3],0.034
same,fraction unbound,[4],0.049
same,Papp,P-glycoprotein,32 ×10⁻⁶ cm/s
same,efflux ratio,[5],1.4
same,efflux ratio,[6],1.3
same,concentration,Plasma [7],1140 nM
same,concentration,Brain,3080 nM
same,Kp,[8],2.7
same,concentration,Cerebrospinal fluid,14 nM
same,Ratio,[9],0.25
same,IC50,[10],100 nM
O=C(O)c1cc(Cc2ccc(Cl)cc2)c2ccccn2c1=O,Activity,[1],0.2 µM
same,Activity,[2],93%
O=C(O)c1cc(CN2CCN(c3ccccc3)C(=O)C2)c2ccccn2c1=O,Activity,[1],1.1 µM
same,Activity,[2],89%
same,fraction unbound,[3],0.62
same,fraction unbound,[4],0.479
O=C(O)c1cc(CN2CCN(c3ccccc3)CC2)c2ccccn2c1=O,Activity,[1],0.93 µM
same,Activity,[2],52%
same,fraction unbound,[3],0.369
same,fraction unbound,[4],0.26
same,fraction unbound,[29],> 0.25
same,fraction unbound,[30],> 0.25
O=C(O)c1cc(C(=O)c2ccccc2)c2ccccn2c1=O,Activity,[1],> 100 µM
